# Results reported in patent US8569298B2, “Pyridine compounds” (Astrazeneca AB, priority 2008, dated 2013).
# Target: T1, FAK enzyme (6 His tagged kinase domain, GenBank NP—722560) (Homo sapiens, UniProt Q05397)
# T1 construct: 6 His; made in house; host or cells: insect cell culture infected with baculovirus
# Test: In vitro enzyme assay (a): sandwich ELISA of FAK tyrosine kinase activity on polyGAT peptide, TMB colorimetric endpoint
# Type: biochemical
# Details: in vitro Enzyme Assay test (a); ATP at Km; geometric mean of n > 1 measurements, values marked * tested once
# Procedure: (a) In Vitro Enzyme Assay
# A sandwich ELISA assay with a 3,3′,5,5′-tetramethyl benzidine (TMB) colorimetric endpoint was used in order to determine the level of effect of selected compounds on inhibition of FAK protein tyrosine kinase enzyme activity. A synthetic tyrosine containing peptide is coated onto a plastic surface, the level of phosphorylation of these tyrosine residues by the kinase enzyme in the presence of inhibitors is measured using an antibody that binds specifically to phosphorylated tyrosine residues. The amount of antibody bound to substrate is proportional to the level of enzyme catalysis.
# Assay Protocol to Identify Inhibitors of Focal Adhesion Kinase (FAK).
# A PlateMate Plus™ 384 automated liquid handling unit with a 100 μl disposable tip head was used to make all the non compound reagent additions and a Tecan 384PW plate washer with 384 head was used for all wash steps. Initially Matrix 384 well polystyrene plates (Cat #:4311) were coated with 40 μl/well of a 0.0375 mg/ml solution of synthetic poly peptide (polyGAT, Sigma Cat #:P3899) dissolved in phosphate buffered saline (PBS). Plates were stored overnight at 4° C. Immediately before use the coating solution was aspirated out and each well washed with 2×100 μl of PBS+0.05% Tween 20. To remove surplus phosphate, the wells were then washed with 2×100 μl 50 mM HEPES buffer pH 7.4. Plates were blotted dry before the addition of compounds. Compounds were tested over a 12 point dose range, a Labcyte Echo 550 was used to dispense compounds in nl volumes and back fill with DMSO. The final concentration of compound in the assay was dependent on the starting concentration of compound. For a 10 mM stock compound the final assay dose ranged from 100 μM down to […]. Control wells containing 120 nl DMSO (Max) or 120 nl of 10 mM staurosporine (LC Laboratories, Boston, USA Cat #: S-9300) (Min) were included in each plate. 10 ul of 5% dimethyl sulfoxide v/v (DMSO, Fisher Scientific) was added to each well immediately prior to addition of 10 μl of a co-factor solution containing 80 mM MgCl2 (Sigma Cat #: M1028); 80 mM MnCl2 (Sigma Cat #: M1787); ATP at a concentration calculated to enable the initial reaction velocity to progress at half the maximum velocity (Km for ATP) (Sigma Cat #:A7699). A final addition of 20 μl of enzyme solution containing 100 mM HEPES pH7.4; 0.2 mM sodium vanadate (Sigma Cat #:S6508); 0.2 g/l bovine serum albumin (BSA, Sigma Cat #: A7888); 0.2 mM dithioreitol (Sigma Cat #: 5545); 0.1% Triton X100 (Sigma Cat #:X100); FAK enzyme (20 μl/ml) was made to each well to start the assay running FAK enzyme was generated from an insect culture infected with baculo virus containing the DNA sequence encoding the 6 His tagged kinase domain (GenBank NP_722560).
# Plates were left at room temperature for 25 minutes before 10 μl of 500 mM ethylenediaminetetraacetic acid (EDTA) was added to stop the assay and the wells were immediately washed 3×100 μl with PBS+0.05% Tween 20. A 4G10 antibody (Millipore Cat #: 16-105; 16-184) with a directly conjugated horse radish peroxidase (HRP) was used to detect the phosphorylation of the substrate by the FAK. 40 μl of PBS+0.05% Tween 20 containing 0.5% BSA and 0.1 μl/ml antibody was added to each well and left for 1 hour at room temperature to allow the antibody to bind. After this period the wells were again washed with 3×100 μl of PBS+0.05% Tween 20. TMB (Sigma Cat #: T2885) was used as a substrate for the HRP. Phosphate-citrate buffer was made up using capsules provided by Sigma (Cat #: P4922) following the manufacturers guidelines. TMB was dissolved at a concentration of 1 mg/ml in DMSO and let down to a final concentration of 0.05 mg/ml with the phosphor-citrate buffer. 40 μl of the TMB solution was added to each assay well and left for 30 minutes for the blue colour to develop. […]
# T1 sequence (Q05397 422-680 limits assumed): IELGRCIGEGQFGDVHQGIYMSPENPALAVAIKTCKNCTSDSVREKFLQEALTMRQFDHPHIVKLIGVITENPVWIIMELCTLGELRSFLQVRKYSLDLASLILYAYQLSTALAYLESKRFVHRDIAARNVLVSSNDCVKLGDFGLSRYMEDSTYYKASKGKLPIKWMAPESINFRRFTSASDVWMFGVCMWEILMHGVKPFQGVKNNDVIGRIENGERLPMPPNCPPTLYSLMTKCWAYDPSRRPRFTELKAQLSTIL
row,Compound,IC50
1,"CNC(=O)c1ccccc1Nc1cc(Nc2cn(C)nc2C)ncc1C#N [Example 1.01, 2-[[5-Cyano-2-[(1,3-dimethylpyrazol-4-yl)amino]-4-pyridyl]amino]-N-methyl-benzamide]",65 nM
2,"CNC(=O)c1ccccc1Nc1cc(Nc2cc(OC)nn2C)ncc1C#N [Example 1.02, 2-[[5-cyano-2-[(5-methoxy-2-methylpyrazol-3-yl)amino]pyridin-4-yl]amino]-N-methylbenzamide]",102 nM
3,"CON(C)C(=O)c1ccccc1Nc1cc(Nc2cn(C)nc2C)ncc1C#N [Example 1.03, 2-[[5-Cyano-2-[(1,3-dimethylpyrazol-4-yl)amino]-4-pyridyl]amino]-N-methoxy-N-methyl-benzamide]",554 nM
4,"CN1CCc2cccc(Nc3cc(Nc4cnn(C)c4)ncc3C#N)c2C1=O [Example 1.04, 4-[(2-Methyl-1-oxo-3,4-dihydroisoquinolin-8-yl)amino]-6-[(1-methylpyrazol-4-yl)amino]pyridine-3-carbonitrile]",14 nM
5,"Cc1cc(Nc2cc(Nc3cccc4c3C(=O)N(C)CC4)c(C#N)cn2)nn1C [Example 1.05, 6-[(1,5-dimethylpyrazol-3-yl)amino]-4-[(2-methyl-1-oxo-3,4-dihydroisoquinolin-8-yl)amino]pyridinc-3-carbonitrile]",4 nM
6,"COc1cc(Nc2cc(Nc3cccc4c3C(=O)N(C)CC4)c(C#N)cn2)n(C)n1 [Example 1.06, 6-[(5-methoxy-2-methylpyrazol-3-yl)amino]-4-[(2-methyl-1-oxo-3,4-dihydroisoquinolin-8-yl)amino]pyridine-3-carbonitrile]",20 nM
7,"CN1CCC(n2cc(Nc3cc(Nc4cccc5c4C(=O)N(C)CC5)c(C#N)cn3)cn2)CC1 [Example 1.07, 4-[(2-methyl-1-oxo-3,4-dihydroisoquinolin-8-yl)amino]-6-[[1-(1-methyl-4-piperidyl)pyrazol-4-yl]amino]pyridine-3-carbonitrile]",128 nM
8,"Cc1nn(C)cc1Nc1cc(Nc2cccc3c2C(=O)N(C)CC3)c(C#N)cn1 [Example 1.08, 6-[(1,3-dimethylpyrazol-4-yl)amino]-4-[(2-methyl-1-oxo-3,4-dihydroisoquinolin-8-yl)amino]pyridine-3-carbonitrile]",6 nM
9,"Cc1nn(C)cc1Nc1cc(Nc2ccc(N3CCN(C(C)C)CC3)c3c2C(=O)N(C)C3)c(C#N)cn1 [Example 1.09, 6-[(1,3-Dimethylpyrazol-4-yl)amino]-4-[[7-(4-isopropylpiperazin-1-yl)-2-methyl-3-oxo-isoindolin-4-yl]amino]pyridine-3-carbonitrile]",19 nM
10,"CNC(=O)c1ccccc1Nc1cc(Nc2cc(C)n(C)n2)ncc1C(F)(F)F [Example 2.01, 2-[[2-[(1,5-Dimethylpyrazol-3-yl)amino]-5-(trifluoromethyl)-4-pyridyl]amino]-N-methyl-benzamide]",19 nM
11,"CNC(=O)c1ccccc1Nc1cc(Nc2cn(C)nc2C)ncc1C(F)(F)F [Example 2.02, 2-[[2-[(1,3-dimethylpyrazol-4-yl)amino]-5-(trifluoromethyl)-4-pyridyl]amino]-N-methyl-benzamide]",8 nM
12,"CONC(=O)c1ccccc1Nc1cc(Nc2cn(C)nc2C)ncc1Cl [Example 3.01, 2-[[5-Chloro-2-[(1,3-dimethylpyrazol-4-yl)amino]-4-pyridyl]amino]-N-methoxy-benzamide]",44 nM
13,"CONC(=O)c1ccccc1Nc1cc(Nc2cc(C)n(C)n2)ncc1Cl [Example 3.02, 2-[[5-chloro-2-[(1,5-dimethylpyrazol-3-yl)amino]-4-pyridyl]amino]-N-methoxy-benzamide]",41 nM
14,"CNC(=O)c1ccccc1Nc1cc(Nc2cnn(CC(=O)N3CCCC3)c2)ncc1Cl [Example 3.03, 2-[[5-Chloro-2-[[1-(2-oxo-2-pyrrolidin-1-yl-ethyl)pyrazol-4-yl]amino]-4-pyridyl]amino]-N-methyl-benzamide]",80 nM
15,"CNC(=O)c1ccccc1Nc1cc(Nc2cnn(CC(=O)N3CCCN(C)CC3)c2)ncc1Cl [Example 3.04, 2-[[5-chloro-2-[[1-[2-(4-methyl-1,4-diazepan-1-yl)-2-oxo-ethyl]pyrazol-4-yl]amino]-4-pyridyl]amino]-N-methyl-benzamide]",68 nM
16,"CNC(=O)c1ccccc1Nc1cc(Nc2cnn(CC(=O)N3CCOCC3)c2)ncc1Cl [Example 3.05, 2-[[5-chloro-2-[[1-(2-morpholino-2-oxo-ethyl)prazol-4-yl]amino]-4-pyridyl]amino]-N-methyl-benzamide]",90 nM
17,"CNC(=O)c1ccccc1Nc1cc(Nc2cnn(CC(=O)N(C)CCOC)c2)ncc1Cl [Example 3.06, 2-[[5-chloro-2-[[1-[2-(2-methoxyethyl-methyl-amino)-2-oxo-ethyl]pyrazol-4-yl]amino]-4-pyridyl]amino]-N-methyl-benzamide]",99 nM
18,"CNC(=O)c1ccccc1Nc1cc(Nc2cnn(CC(=O)N3CCN(C)CC3)c2)ncc1Cl [Example 3.07, 2-[[5-chloro-2-[[1-[2-(4-methylpiperazin-1-yl)-2-oxo-ethyl]pyrazol-4-yl]amino]-4-pyridyl]amino]-N-methyl-benzamide]",48 nM
19,"CNC(=O)c1ccccc1Nc1cc(Nc2cc(OC)nn2C)ncc1Cl [Example 3.08, 2-[[5-Chloro-2-[(5-methoxy-2-methylpyrazol-3-yl)amino]pyridin-4-yl]amino]-N-methylbenzamide]",60 nM
20,"CNC(=O)c1ccccc1Nc1cc(Nc2cc(C)nn2C)ncc1Cl [Example 3.09, 2-[[5-chloro-2-[(2,5-dimethylpyrazol-3-yl)amino]-4-pyridyl]amino]-N-methyl-benzamide]",29 nM
21,"CNC(=O)c1ccccc1Nc1cc(Nc2cc(C)n(C)n2)ncc1Cl [Example 3.10, 2-[[5-chloro-2-[(1,5-dimethylpyrazol-3-yl)amino]-4-pyridyl]amino]-N-methyl-benzamide]",45 nM
22,"CNC(=O)c1ccccc1Nc1cc(Nc2cnn(C)c2)ncc1Cl [Example 3.11, 2-[[5-chloro-2-[(1-methylpyrazol-4-yl)amino]-4-pyridyl]amino]-N-methyl-benzamide]",439 nM
23,"CNC(=O)c1ccccc1Nc1cc(Nc2cnn(C3CCN(C)CC3)c2)ncc1Cl [Example 3.12, 2-[[5-chloro-2-[[1-(1-methyl-4-piperidyl)pyrazol-4-yl]amino]-4-pyridyl]amino]-N-methyl-benzamide]",195 nM
24,"CNC(=O)c1ccccc1Nc1cc(Nc2cnn(C3CCN(C(C)=O)CC3)c2)ncc1Cl [Example 3.13, 2-[(2-[[1-(1-acetyl-4-piperidyl)pyrazol-4-yl]amino]-5-chloro-4-pyridyl]amino]-N-methyl-benzamide]",128 nM
25,"CNC(=O)c1ccccc1Nc1cc(Nc2cn(C)nc2C)ncc1Cl [Example 3.14, 2-[[5-chloro-2-[(1,3-dimethylpyrazol-4-yl)amino]-4-pyridyl]amino]-N-methyl-benzamide]",45 nM
26,"CNC(=O)c1ccccc1Nc1cc(Nc2cnn(C3CCOCC3)c2)ncc1Cl [Example 3.15, 2-[[5-chloro-2-[(1-tetrahydropyran-4-ylpyrazol-4-yl)amino]-4-pyridyl]amino]-N-methyl-benzamide]",670 nM
27,"CNC(=O)c1ccccc1Nc1cc(Nc2cc(C)[nH]n2)ncc1Cl [Example 3.16, 2-[[5-Chloro-2-[(5-methyl-1H-pyrazol-3-yl)amino]pyridin-4-yl]amino]-N-methylbenzamide]",93 nM
